Test results published in patent US20100197650A1, “COMPOSITIONS AND METHODS OF TREATMENT COMPRISING CEFTAROLINE” (FOREST LABORATORIES HOLDINGS LTD., priority 2008, published 2010).
≈ marks a conversion by molar mass, not a printed value. Like-named read-outs stand apart in the source and are kept apart here. Marks after values point to notes of the source that are not given here.

Experiments:
[1] = test system: ESBL-producing Klebsiella pneumoniae; assay: Susceptibility testing MIC/MBC, broth microdilution (Example 2); type: cell-based; conditions: for MBC / MIC: Klebsiella pneumoniae; for MBC: read-out: MBC
P. aeruginosa = assay: as above; type: cell-based, Pseudomonas aeruginosa; conditions: for MBC / MIC: Pseudomonas aeruginosa; for MBC: read-out: MBC; for MIC: read-out: MIC
Escherichia coli = assay: MIC, broth microdilution (Example 1); type: cell-based
Experimental: (§1) Stock solutions of all antibacterial agents were prepared at 80-fold (80×) the final target concentration in the appropriate solvent and the solution was allowed to stand for 60 minutes. All antibacterial agents were in solution under these conditions. The final drug concentrations in the FIC assay plates were set to bracket the MIC value of each agent for each test organism, unless the strain was totally resistant to the test agent.
(§2) The test organisms were originally received from clinical sources, or from the American Type Culture Collection. Upon receipt, the isolates were streaked onto the appropriate growth medium: Chocolate Agar for H. influenzae, Tryptic Soy Agar II (Becton Dickinson, Sparks, Md.) supplemented with 5% defibrinated sheep blood for streptococci, and unsupplemented Tryptic Soy Agar II for all other organisms. Colonies were harvested from these plates and a cell suspension was prepared in Tryptic Soy Broth (Becton Dickinson) containing cryoprotectant. Aliquots were then frozen at −80° C. On the day prior to assay, the frozen seeds of the organisms to be tested in that session were thawed and streaked for isolation onto the appropriate agar medium plates and incubated overnight at 35° C.
(§3) The test medium for H. influenzae was Haemophilus Test Medium. Streptococci were tested in Mueller Hinton II Broth (Becton Dickinson; Lot 6235472) supplemented with 2% lysed horse blood (Cleveland Scientific, Bath, Ohio; Lot H88621). All other organisms were tested in Mueller Hinton II Broth (Becton Dickinson, Lot 6235472). The broth was prepared at 1.05× normal weight/volume to offset the 5% volume of the drugs in the final test plates.
(§4) In order to select the proper test concentrations for each drug combination, minimal inhibitory concentration (MIC) values were first determined using the broth microdilution method previously described (Clinical and Laboratory Standards Institute. Methods for Dilution Antimicrobial Susceptibility Tests for Bacteria That Grow Aerobically; Approved Standard—Seventh Edition. Clinical and Laboratory Standards Institute document M7-A7 [ISBN 1-56238-587-9]. Clinical and Laboratory Standards Institute, 940 West Valley Road, Suite 1400, Wayne, Pa. 19087-1898 USA, 2006).
(§5) The wells of standard 96-well microdilution plates (Falcon 3918) were filled with 150 μL of 100% DMSO using the Multidrop 384. These plates were used to prepare the drug “mother plates” which provided the serial drug dilutions for the drug combination plates. The Biomek 2000 was used to transfer 150 μl of each stock solution (80×) from the wells in Column 1 of a deep well plate to the corresponding wells in Column 1 of the mother plate and to make seven 2-fold serial dilutions. Two mother plates, one for each drug, were combined to form a “checkerboard” pattern by transfer of equal volumes (using a multi-channel pipette) to the drug combination plate. Row H and Column 8 each contained serial dilutions of one of the agents alone for determination of the MIC.
(§6) Plates were stacked 3 high, covered with a lid on the top plate, placed in plastic bags, and incubated at 35° C. for approximately 20 hours. Following incubation, the microplates were removed from the incubator and viewed from the bottom using a ScienceWare plate viewer. Prepared reading sheets were marked for the MIC of drug 1 (row H), the MIC of drug 2 (column 8) and the wells of the growth-no growth interface.

Pseudomonas aeruginosa = assay: MIC, broth microdilution (Example 1); type: cell-based
Experimental: as §1, §2, §3, §4, §5, §6

Klebsiella pneumoniae = assay: MIC, broth microdilution (Example 1); type: cell-based
Experimental: as §1, §2, §3, §4, §5, §6

[2] = test system: AmpC-derepressed Enterobacter cloacae; assay: microbe, parasite or virus in culture; type: cell-based; conditions: for MBC range / MIC range: E. cloacae (10) clinical isolates; for MBC / MIC: Enterobacter cloacae
ESBL-producing E. coli = assay: Susceptibility testing MIC/MBC, broth microdilution (Example 2); type: cell-based, Escherichia coli; conditions: for MBC range / MIC range: E. coli (10) clinical isolates; for MBC / MIC: Escherichia coli; for MBC: read-out: MBC; for MIC: read-out: MIC
Haemophilus influenzae = assay: MIC, broth microdilution (Example 1); type: cell-based; conditions: Haemophilus influenzae, read-out: MIC
Experimental: as §1, §2, §3, §4, §5, §6

Streptococcus pyogenes = assay: MIC, broth microdilution (Example 1); type: cell-based; conditions: Streptococcus pyogenes, read-out: MIC
Experimental: as §1, §2, §3, §4, §5, §6

Streptococcus pneumoniae = assay: MIC, broth microdilution (Example 1); type: cell-based
Experimental: as §1, §2, §3, §4, §5, §6

[3] = K. pneumonia (10) clinical isolates
[4] = K. pneumonia isolate no. 5427, read-out: MIC
[5] = K. pneumonia isolate no. 5436, read-out: MIC
[6] = P. aeruginosa (20) clinical isolates
[7] = Escherichia coli, E. coli 1587, read-out: MIC
[8] = Escherichia coli, E. coli 2273 (ESBL), read-out: MIC
[9] = Klebsiella pneumoniae, K. pneumoniae 1340, read-out: MIC
[10] = Klebsiella pneumoniae, K. pneumoniae 1461, read-out: MIC

SMILES: NCC[C@H](O)C(=O)N[C@@H]1C[C@H](N)[C@@H](O[C@H]2O[C@H](CN)[C@@H](O)[C@H](O)[C@H]2O)[C@H](O)[C@H]1O[C@H]1O[C@H](CO)[C@@H](O)[C@H](N)[C@H]1O [Amikacin]
- MBC range [1, 3]: 1 to 128 mg/L
- MIC range [1, 3]: 1 to 32 mg/L
- MBC ([1]; K. pneumonia isolate no. 5427): 2 mg/L (≈ 3.42 µM)
- MIC [1, 4]: 2 mg/L (≈ 3.42 µM)
- MBC ([1]; K. pneumonia isolate no. 5436): 2 mg/L (≈ 3.42 µM)
- MIC [1, 5]: 1 mg/L (≈ 1.71 µM)
- MBC range (P. aeruginosa; [6]): 2 to 64 mg/L
- MIC range (P. aeruginosa; [6]): 2 to 16 mg/L
- MBC (P. aeruginosa; P. aeruginosa isolate no. 796): 32 mg/L (≈ 54.6 µM)
- MIC (P. aeruginosa; P. aeruginosa isolate no. 796): 16 mg/L (≈ 27.3 µM)
- MBC (P. aeruginosa; P. aeruginosa isolate no. 956): 64 mg/L (≈ 109 µM)
- MIC (P. aeruginosa; P. aeruginosa isolate no. 956): 4 mg/L (≈ 6.83 µM)
- MBC (P. aeruginosa; P. aeruginosa isolate no. 1019): 4 mg/L (≈ 6.83 µM)
- MIC (P. aeruginosa; P. aeruginosa isolate no. 1019): 4 mg/L (≈ 6.83 µM)
- MBC (P. aeruginosa; P. aeruginosa isolate no. 1037): 4 mg/L (≈ 6.83 µM)
- MIC (P. aeruginosa; P. aeruginosa isolate no. 1037): 2 mg/L (≈ 3.42 µM)
- MIC (Escherichia coli; [7]): 4 mg/L
- MIC (Escherichia coli; [8]): 8 mg/L
- MIC (Pseudomonas aeruginosa; P. aeruginosa 2555): 8 mg/L
- MIC (Pseudomonas aeruginosa; P. aeruginosa 2559): 4 mg/L
- MIC (Klebsiella pneumoniae; [9]): 1 mg/L
- MIC (Klebsiella pneumoniae; [10]): 1 mg/L
- MBC range [2]: 1 to 8 mg/L
- MIC range [2]: 0.5 to 4 mg/L
- MBC ([2]; E. cloacae isolate no. 4073): 8 mg/L (≈ 13.7 µM)
- MIC ([2]; E. cloacae isolate no. 4073): 1 mg/L (≈ 1.71 µM)
- MBC ([2]; E. cloacae isolate no. 5420): 2 mg/L (≈ 3.42 µM)
- MIC ([2]; E. cloacae isolate no. 5420): 1 mg/L (≈ 1.71 µM)
- MBC range (ESBL-producing E. coli): 4 to 64 mg/L
- MIC range (ESBL-producing E. coli): 1 to 16 mg/L
- MBC (ESBL-producing E. coli; E. coli isolate no. 5401): 4 mg/L (≈ 6.83 µM)
- MIC (ESBL-producing E. coli; E. coli isolate no. 5401): 2 mg/L (≈ 3.42 µM)
- MBC (ESBL-producing E. coli; E. coli isolate no. 5411): 16 mg/L (≈ 27.3 µM)
- MIC (ESBL-producing E. coli; E. coli isolate no. 5411): 8 mg/L (≈ 13.7 µM)

SMILES: C[C@H]1[C@H](NC(=O)/C(=N\OC(C)(C)C(=O)O)c2csc(N)n2)C(=O)N1S(=O)(=O)O [Aztreonam]
- MIC ([1]; 1 K. pneumoniae isolate, read-out: MIC): 0.5 mg/L (≈ 1.15 µM)
- MBC ([1]; K. pneumonia isolate no. 5427): 1 mg/L (≈ 2.3 µM)
- MIC [1, 4]: 0.5 mg/L (≈ 1.15 µM)
- MBC ([1]; K. pneumonia isolate no. 5436): 64 mg/L (≈ 147 µM)
- MIC [1, 5]: 64 mg/L (≈ 147 µM)
- MIC ([1]; all K. pneumoniae except 1 isolate, read-out: MIC values): ≥ 8 mg/L
- MIC (Escherichia coli; [7]): 0.25 mg/L
- MIC (Escherichia coli; [8]): 16 mg/L
- MIC (Klebsiella pneumoniae; [9]): 0.12 mg/L
- MIC (Klebsiella pneumoniae; [10]): 0.25 mg/L
- MBC (ESBL-producing E. coli; E. coli isolate no. 5401): 0.25 mg/L (≈ 0.574 µM)
- MIC (ESBL-producing E. coli; E. coli isolate no. 5401): 0.25 mg/L (≈ 0.574 µM)
- MBC (ESBL-producing E. coli; E. coli isolate no. 5411): 32 mg/L (≈ 73.5 µM)
- MIC (ESBL-producing E. coli; E. coli isolate no. 5411): 8 mg/L (≈ 18.4 µM)

SMILES: C[C@H]1COc2c(N3CCN(C)CC3)c(F)cc3c(=O)c(C(=O)O)cn1c23 [Levofloxacin]
- MBC ([1]; K. pneumonia isolate no. 5427): 2 mg/L (≈ 5.53 µM)
- MIC [1, 4]: 0.25 mg/L (≈ 0.692 µM)
- MBC ([1]; K. pneumonia isolate no. 5436): 4 mg/L (≈ 11.1 µM)
- MIC [1, 5]: 4 mg/L (≈ 11.1 µM)
- MIC range (P. aeruginosa; [6]): 0.25 to 32 mg/L
- MBC (P. aeruginosa; P. aeruginosa isolate no. 796): 2 mg/L (≈ 5.53 µM)
- MIC (P. aeruginosa; P. aeruginosa isolate no. 796): 1 mg/L (≈ 2.77 µM)
- MBC (P. aeruginosa; P. aeruginosa isolate no. 956): 1 mg/L (≈ 2.77 µM)
- MIC (P. aeruginosa; P. aeruginosa isolate no. 956): 0.5 mg/L (≈ 1.38 µM)
- MBC (P. aeruginosa; P. aeruginosa isolate no. 1019): 1 mg/L (≈ 2.77 µM)
- MIC (P. aeruginosa; P. aeruginosa isolate no. 1019): 0.5 mg/L (≈ 1.38 µM)
- MBC (P. aeruginosa; P. aeruginosa isolate no. 1037): 0.5 mg/L (≈ 1.38 µM)
- MIC (P. aeruginosa; P. aeruginosa isolate no. 1037): 0.25 mg/L (≈ 0.692 µM)
- MIC (Haemophilus influenzae; H. influenzae 1224): 0.015 mg/L
- MIC (Haemophilus influenzae; H. influenzae 2797 (BLNAR)): 0.015 mg/L
- MIC (Haemophilus influenzae; H. influenzae 2798 (BLNAR)): 0.015 mg/L
- MIC (Haemophilus influenzae; H. influenzae 2799 (BLNAR)): 0.015 mg/L
- MIC (Escherichia coli; E. coli 2273 (ESBL)): >4^a μg/mL
- MIC (Escherichia coli; [7]): 0.06 mg/L
- MIC (Escherichia coli; [8]): > 4 mg/L
- MIC (Klebsiella pneumoniae; K. pneumoniae 1461): >4^a μg/mL
- MIC (Klebsiella pneumoniae; [9]): 0.06 mg/L
- MIC (Klebsiella pneumoniae; [10]): > 4 mg/L
- MIC (Streptococcus pyogenes; S. pyogenes 0717): 0.5 mg/L
- MIC (Streptococcus pyogenes; S. pyogenes 0722): 0.5 mg/L
- MIC (Streptococcus pneumoniae; S. pneumoniae 0866 (PSSP)): 1 ^ μg/mL
- MIC (Streptococcus pneumoniae; S. pneumoniae 0869 (PSSP)): 1 ^ μg/mL
- MIC (Streptococcus pneumoniae; S. pneumoniae 0880 (PRSP)): >4^a μg/mL
- MIC (Streptococcus pneumoniae; S. pneumoniae 0884 (PRSP)): 1 ^ μg/mL
- MIC (Streptococcus pneumoniae; Streptococcus pneumoniae, PRSP, S. pneumoniae 0880 (PRSP), read-out: MIC): > 4 mg/L
- MIC (Streptococcus pneumoniae; Streptococcus pneumoniae, PRSP, S. pneumoniae 0884 (PRSP), read-out: MIC): 1 mg/L
- MIC (Streptococcus pneumoniae; Streptococcus pneumoniae, S. pneumoniae 0866 (PSSP), read-out: MIC): 1 mg/L
- MIC (Streptococcus pneumoniae; Streptococcus pneumoniae, S. pneumoniae 0869 (PSSP), read-out: MIC): 1 mg/L
- MBC range [2]: 0.03 to 128 mg/L
- MIC range [2]: 0.03 to 64 mg/L
- MBC ([2]; E. cloacae isolate no. 4073): 0.06 mg/L (≈ 0.166 µM)
- MIC ([2]; E. cloacae isolate no. 4073): 0.06 mg/L (≈ 0.166 µM)
- MBC ([2]; E. cloacae isolate no. 5420): 0.06 mg/L (≈ 0.166 µM)
- MIC ([2]; E. cloacae isolate no. 5420): 0.06 mg/L (≈ 0.166 µM)
- MBC range (ESBL-producing E. coli): 0.06 to 32 mg/L
- MIC range (ESBL-producing E. coli): 0.03 to 32 mg/L
- MBC (ESBL-producing E. coli; E. coli isolate no. 5401): 32 mg/L (≈ 88.6 µM)
- MIC (ESBL-producing E. coli; E. coli isolate no. 5401): 32 mg/L (≈ 88.6 µM)
- MBC (ESBL-producing E. coli; E. coli isolate no. 5411): 16 mg/L (≈ 44.3 µM)
- MIC (ESBL-producing E. coli; E. coli isolate no. 5411): 8 mg/L (≈ 22.1 µM)
